Among the data in ChEMBL document CHEMBL1201862, “PubChem BioAssay data set” (2004) are AC50, IC50 and EC50 values, retold here.

A short description of experiment [1]: suppression of NO production in INS-1E cells – cell-based, Griess absorbance, dry powder, set 3, dose response (AID 488870). To be noted: Rattus norvegicus. Format: functional.
In experiment [2] the test system is INS1. Nature of the experiment: suppression of NO production in INS-1E cells – cell-based, Griess absorbance, dry powder, set 2, dose response (AID 488868). Format: functional. The conditions noted are these: Rattus norvegicus.
Experiment [3] has as its system INS1. Nature of the experiment: cellular ATP toxicity in rat beta cells – cell-based, CellTiter-Glo luminescence, INS-1E, dry powder, cytotoxicity control for beta-cell cytokine protection project, dose response (AID 488864). Format: functional.
The nature of experiment [4]: A549 cell cytotoxicity, dose response, cytotoxicity control, plate reader, cherry-pick, antagonist series (AID 743412). Format: functional, cell-based.
Experiment [5] in a line: toxicity toward HepG2 liver cells – cell-based, plate reader, cherry-pick, antagonist series, cytotoxicity control, dose response (AID 743416). Format: functional.
The nature of experiment [6]: blockers of bursicon-stimulated LGR2 cAMP reporter – cell-based, HEK293, CRE-luciferase reporter, cherry pick, set 2, dose response (AID 743343).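 Also: transfected cells were stimulated with diluted bursicon conditioned medium after compound addition.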 Format: functional. A general note: A reporter such as luciferase makes a cellular process visible.
The nature of experiment [7]: blockade of melanocortin 4 receptor signaling – cell-based, plate reader, cherry pick, counter-screen for LGR2 antagonist project, dose response (AID 743444).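 Also: transfected HEK 293 cells stimulated with alpha-MSH peptide; potency of inhibitors of the alpha-MSH evoked signal.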 Format: functional. A general note: The purpose of a counterscreen is to sort out artefacts and off-target activity.
The nature of experiment [8]: viability loss in HEK293 cells – cell-based, plate reader, cherry-picked samples, cytotoxicity control, dose response (AID 743446). Format: functional.
Experiment [9] is described as follows: Mcl1-dependent cancer cell viability – HMC-1-8 cells, luminescence, dry powder, selectivity assay for A1 inhibitor project, dose response (AID 504415). Format: functional, cell-based. The conditions noted are these: Homo sapiens.
Experiment [10] concerns the target T1, Tyrosine-protein phosphatase non-receptor type 7 (Homo sapiens, UniProt P35236).
T1 sequence (P35236 whole entry): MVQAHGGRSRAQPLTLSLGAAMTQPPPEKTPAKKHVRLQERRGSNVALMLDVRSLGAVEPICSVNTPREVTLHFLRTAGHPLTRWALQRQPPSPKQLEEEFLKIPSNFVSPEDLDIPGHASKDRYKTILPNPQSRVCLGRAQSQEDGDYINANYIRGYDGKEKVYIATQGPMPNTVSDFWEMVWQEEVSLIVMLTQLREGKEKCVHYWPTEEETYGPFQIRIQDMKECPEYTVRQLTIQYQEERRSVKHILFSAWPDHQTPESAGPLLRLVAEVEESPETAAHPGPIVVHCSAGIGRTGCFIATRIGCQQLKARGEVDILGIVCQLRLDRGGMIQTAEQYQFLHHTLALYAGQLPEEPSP
Format: functional.

The target in experiment [11] is T2, RNA-binding protein pos-1 (Caenorhabditis elegans, UniProt G5EF15).
T2 sequence (G5EF15 whole entry): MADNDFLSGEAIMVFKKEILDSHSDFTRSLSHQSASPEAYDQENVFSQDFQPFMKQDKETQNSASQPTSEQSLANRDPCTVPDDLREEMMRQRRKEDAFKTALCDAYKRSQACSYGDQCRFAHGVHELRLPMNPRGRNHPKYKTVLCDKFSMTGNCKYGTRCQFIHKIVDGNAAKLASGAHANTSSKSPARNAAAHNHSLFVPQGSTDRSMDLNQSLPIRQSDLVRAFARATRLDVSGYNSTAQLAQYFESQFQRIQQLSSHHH
Nature of the experiment: disruptors of C. elegans POS-1 RNA interaction – biochemical, fluorescence polarization, dose response (AID 1964).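 Also: purified POS-1 fused to maltose binding protein made in E. coli; potency of compounds blocking POS-1 binding to fluorescent RNA.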

The next experiment addresses T3, Bcl-2-like protein 10 (Homo sapiens, UniProt Q9HD36).
T3 sequence (Q9HD36 whole entry): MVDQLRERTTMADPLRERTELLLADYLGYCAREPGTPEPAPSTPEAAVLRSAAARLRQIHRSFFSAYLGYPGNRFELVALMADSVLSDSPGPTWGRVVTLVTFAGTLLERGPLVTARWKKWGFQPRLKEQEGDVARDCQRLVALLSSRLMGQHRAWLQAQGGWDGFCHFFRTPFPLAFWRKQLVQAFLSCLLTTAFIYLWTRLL
Nature of the experiment: Bcl-B/TR3 peptide binding disruption – biochemical, fluorescence polarization, FITC-TR3 peptide, selectivity assay for Bfl-1 inhibitor project, primary screen (AID 748).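 Also: fluorescence polarization from a fluorescein-labelled TR3 peptide binding purified Bcl-B.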 A general note: Polarisation of emitted light reports the rotation of a fluorescent probe.

Experiment [12] addresses Glyceraldehyde-3-phosphate dehydrogenase (Homo sapiens, UniProt P04406).
For experiment [13], the target named is T4, Zinc finger protein mex-5 (Caenorhabditis elegans, UniProt Q9XUB2).
T4 sequence (Q9XUB2 whole entry): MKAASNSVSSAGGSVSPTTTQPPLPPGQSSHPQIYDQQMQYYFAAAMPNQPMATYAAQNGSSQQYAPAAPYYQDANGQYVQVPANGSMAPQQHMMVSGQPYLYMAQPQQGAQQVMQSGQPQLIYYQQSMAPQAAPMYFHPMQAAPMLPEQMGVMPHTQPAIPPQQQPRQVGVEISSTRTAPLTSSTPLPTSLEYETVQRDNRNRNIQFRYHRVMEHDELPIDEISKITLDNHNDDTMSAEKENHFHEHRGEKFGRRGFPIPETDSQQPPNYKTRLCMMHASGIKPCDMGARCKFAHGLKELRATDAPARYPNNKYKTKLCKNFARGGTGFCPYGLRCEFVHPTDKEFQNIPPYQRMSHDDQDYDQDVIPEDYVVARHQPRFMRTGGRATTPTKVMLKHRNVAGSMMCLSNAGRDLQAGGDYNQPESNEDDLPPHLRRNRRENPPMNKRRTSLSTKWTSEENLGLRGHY
Nature of the experiment: potency of MEX-5 RNA-binding blockers – biochemical, C. elegans, fluorescence polarization, dose response (AID 1960).

Experiment [14] concerns the target Heat shock cognate 71 kDa protein (Homo sapiens, UniProt P11142). Nature of the experiment: In Vitro Hsc70 Dose Response Fluorescence Polarization Assay. [Related pubchem assays: 1072 ].
Another experiment deals with Large T antigen (Simian virus 40, UniProt P03070). Format: functional, Betapolyomavirus macacae.
Chain of Large T antigen (P03070 whole entry): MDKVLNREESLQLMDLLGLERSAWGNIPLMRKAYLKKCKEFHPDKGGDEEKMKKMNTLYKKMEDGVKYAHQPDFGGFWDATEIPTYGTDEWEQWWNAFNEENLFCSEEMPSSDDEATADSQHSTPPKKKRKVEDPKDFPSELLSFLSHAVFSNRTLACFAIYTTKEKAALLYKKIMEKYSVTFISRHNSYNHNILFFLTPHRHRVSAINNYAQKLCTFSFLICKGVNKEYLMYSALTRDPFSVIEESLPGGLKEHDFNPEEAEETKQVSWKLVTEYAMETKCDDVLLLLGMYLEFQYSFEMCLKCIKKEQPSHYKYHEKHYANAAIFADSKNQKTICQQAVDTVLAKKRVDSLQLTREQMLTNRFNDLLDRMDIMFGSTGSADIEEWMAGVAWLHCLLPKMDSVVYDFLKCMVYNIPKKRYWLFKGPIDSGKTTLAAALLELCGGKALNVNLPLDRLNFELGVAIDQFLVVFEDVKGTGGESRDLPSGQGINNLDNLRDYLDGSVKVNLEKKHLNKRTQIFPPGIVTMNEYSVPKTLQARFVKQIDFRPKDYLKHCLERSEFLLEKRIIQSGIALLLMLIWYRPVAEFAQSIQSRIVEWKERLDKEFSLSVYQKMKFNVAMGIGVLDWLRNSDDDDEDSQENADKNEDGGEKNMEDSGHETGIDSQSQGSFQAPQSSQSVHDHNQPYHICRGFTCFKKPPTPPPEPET
Experiment [15] addresses Heat shock 70 kDa protein 1A (Homo sapiens, UniProt P0DMV8). Nature of the experiment: inhibition of Hsp70 binding activity – biochemical, fluorescence polarization, SAR follow-up (AID 1072).
In experiment [16] the target is T5, Dual specificity protein phosphatase 6 (Rattus norvegicus, UniProt Q64346).
T5 sequence (Q64346 whole entry): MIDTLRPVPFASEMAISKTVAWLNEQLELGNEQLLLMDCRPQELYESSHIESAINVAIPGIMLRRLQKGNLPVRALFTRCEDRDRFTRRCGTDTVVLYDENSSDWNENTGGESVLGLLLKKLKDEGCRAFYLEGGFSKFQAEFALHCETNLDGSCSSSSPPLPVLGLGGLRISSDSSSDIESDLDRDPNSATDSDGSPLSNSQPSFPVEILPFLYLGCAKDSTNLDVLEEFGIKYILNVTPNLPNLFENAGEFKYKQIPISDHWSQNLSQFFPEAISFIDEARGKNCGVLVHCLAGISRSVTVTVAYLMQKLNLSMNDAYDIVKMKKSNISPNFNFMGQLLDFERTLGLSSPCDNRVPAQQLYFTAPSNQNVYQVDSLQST

Experiment [17] has as its target T5, Dual specificity protein phosphatase 6. Nature of the experiment: inhibition of rat DUSP6 enzyme activity – biochemical, in vitro, primary screen (AID 425).
Experiment [18] concerns the target Induced myeloid leukemia cell differentiation protein Mcl-1 (Homo sapiens, UniProt Q07820). Format: functional.
For experiment [19], the target named is Eukaryotic translation initiation factor 4E (Mus musculus, UniProt P63073). Nature of the experiment: blockers of eIF4G binding by eIF4E – biochemical, TR-FRET, dose response (AID 855).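 Also: potency for disrupting eIF4E binding to eIF4GI seen as loss of FRET.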 Format: functional.
Chain of Eukaryotic translation initiation factor 4E (P63073 whole entry): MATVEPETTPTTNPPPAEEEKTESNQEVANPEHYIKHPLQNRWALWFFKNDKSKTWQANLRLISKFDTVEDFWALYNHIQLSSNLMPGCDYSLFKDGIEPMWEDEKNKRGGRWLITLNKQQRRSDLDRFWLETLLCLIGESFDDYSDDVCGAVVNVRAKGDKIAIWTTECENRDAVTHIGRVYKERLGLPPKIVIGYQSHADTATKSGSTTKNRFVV
Experiment [20] concerns the target T5, Dual specificity protein phosphatase 6. Format: functional.
For experiment [21], the target named is T6, DNA dC->dU-editing enzyme APOBEC-3A (Homo sapiens, UniProt P31941). Nature of the experiment: SAR analysis of small molecule inhibitors of APOBEC3A DNA Deaminase via a fluorescence-based single-stranded DNA deaminase assay - Set 2. To be noted: read-out: IC50_Mean. Format: functional.
T6 sequence (P31941 whole entry): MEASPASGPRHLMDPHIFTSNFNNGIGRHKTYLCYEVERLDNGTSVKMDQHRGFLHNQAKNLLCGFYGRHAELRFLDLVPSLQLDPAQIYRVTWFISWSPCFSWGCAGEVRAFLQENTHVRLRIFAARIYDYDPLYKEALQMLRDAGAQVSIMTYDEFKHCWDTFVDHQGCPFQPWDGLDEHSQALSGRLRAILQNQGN
Experiment [22] has as its target T7, DNA dC->dU-editing enzyme APOBEC-3G (Homo sapiens, UniProt Q9HC16). Nature of the experiment: SAR analysis of small molecule inhibitors of APOBEC3G DNA Deaminase via a fluorescence-based single-stranded DNA deaminase assay - Set 2. The conditions noted are these: read-out: IC50_Mean. Format: functional.
Experiment [23] has as its target T7, DNA dC->dU-editing enzyme APOBEC-3G. Nature of the experiment: inhibition of APOBEC3G ssDNA deamination – biochemical, fluorescence, single-stranded DNA substrate, SAR follow-up (AID 602136). Format: functional. The conditions noted are these: read-out: IC50_Mean.
Experiment [24] deals with T6, DNA dC->dU-editing enzyme APOBEC-3A. Nature of the experiment: SAR analysis of small molecule inhibitors of APOBEC3A DNA Deaminase via a fluorescence-based single-stranded DNA deaminase assay. Format: functional. To be noted: read-out: IC50_Mean.

Each structure is given as a SMILES string. Activity calls are given as the source filed them.

T7 sequence (Q9HC16 whole entry): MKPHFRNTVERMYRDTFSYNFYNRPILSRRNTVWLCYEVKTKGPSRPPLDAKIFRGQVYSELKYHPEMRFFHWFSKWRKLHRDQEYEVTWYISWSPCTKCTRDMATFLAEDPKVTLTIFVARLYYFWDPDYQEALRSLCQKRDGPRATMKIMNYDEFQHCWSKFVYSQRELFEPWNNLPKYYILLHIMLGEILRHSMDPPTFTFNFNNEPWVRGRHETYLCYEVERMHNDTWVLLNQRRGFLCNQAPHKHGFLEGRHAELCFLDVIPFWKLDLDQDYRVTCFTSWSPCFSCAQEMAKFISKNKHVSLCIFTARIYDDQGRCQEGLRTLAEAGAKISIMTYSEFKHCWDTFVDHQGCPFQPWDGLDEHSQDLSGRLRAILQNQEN
Chain of Glyceraldehyde-3-phosphate dehydrogenase (P04406 whole entry): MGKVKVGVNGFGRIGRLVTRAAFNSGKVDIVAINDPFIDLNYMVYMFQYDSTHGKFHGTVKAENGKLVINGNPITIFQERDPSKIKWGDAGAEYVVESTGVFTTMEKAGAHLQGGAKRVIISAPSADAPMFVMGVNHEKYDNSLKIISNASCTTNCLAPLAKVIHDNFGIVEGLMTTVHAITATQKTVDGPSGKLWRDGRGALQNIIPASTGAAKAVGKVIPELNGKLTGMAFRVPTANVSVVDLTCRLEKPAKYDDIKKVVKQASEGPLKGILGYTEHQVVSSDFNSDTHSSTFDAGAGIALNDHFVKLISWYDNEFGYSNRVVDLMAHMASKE
Chain of Heat shock cognate 71 kDa protein (P11142 whole entry): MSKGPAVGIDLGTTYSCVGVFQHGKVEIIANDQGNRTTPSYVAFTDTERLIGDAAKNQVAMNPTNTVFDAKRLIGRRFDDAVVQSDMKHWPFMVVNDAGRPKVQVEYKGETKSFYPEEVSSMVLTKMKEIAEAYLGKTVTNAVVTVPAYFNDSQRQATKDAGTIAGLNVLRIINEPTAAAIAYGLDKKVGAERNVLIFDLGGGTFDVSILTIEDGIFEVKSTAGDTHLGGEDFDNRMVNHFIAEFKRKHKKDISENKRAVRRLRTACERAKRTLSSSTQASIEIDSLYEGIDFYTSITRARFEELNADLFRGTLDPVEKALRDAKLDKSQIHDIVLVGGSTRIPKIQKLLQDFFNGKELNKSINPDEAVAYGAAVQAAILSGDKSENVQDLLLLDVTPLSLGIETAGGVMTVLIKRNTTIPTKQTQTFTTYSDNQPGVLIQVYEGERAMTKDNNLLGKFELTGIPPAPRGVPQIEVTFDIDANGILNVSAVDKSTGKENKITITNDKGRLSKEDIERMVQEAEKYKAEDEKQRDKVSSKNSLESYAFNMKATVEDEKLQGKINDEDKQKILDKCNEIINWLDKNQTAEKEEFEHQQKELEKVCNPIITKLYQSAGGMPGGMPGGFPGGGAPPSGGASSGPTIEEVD
Chain of Heat shock 70 kDa protein 1A (P0DMV8 whole entry): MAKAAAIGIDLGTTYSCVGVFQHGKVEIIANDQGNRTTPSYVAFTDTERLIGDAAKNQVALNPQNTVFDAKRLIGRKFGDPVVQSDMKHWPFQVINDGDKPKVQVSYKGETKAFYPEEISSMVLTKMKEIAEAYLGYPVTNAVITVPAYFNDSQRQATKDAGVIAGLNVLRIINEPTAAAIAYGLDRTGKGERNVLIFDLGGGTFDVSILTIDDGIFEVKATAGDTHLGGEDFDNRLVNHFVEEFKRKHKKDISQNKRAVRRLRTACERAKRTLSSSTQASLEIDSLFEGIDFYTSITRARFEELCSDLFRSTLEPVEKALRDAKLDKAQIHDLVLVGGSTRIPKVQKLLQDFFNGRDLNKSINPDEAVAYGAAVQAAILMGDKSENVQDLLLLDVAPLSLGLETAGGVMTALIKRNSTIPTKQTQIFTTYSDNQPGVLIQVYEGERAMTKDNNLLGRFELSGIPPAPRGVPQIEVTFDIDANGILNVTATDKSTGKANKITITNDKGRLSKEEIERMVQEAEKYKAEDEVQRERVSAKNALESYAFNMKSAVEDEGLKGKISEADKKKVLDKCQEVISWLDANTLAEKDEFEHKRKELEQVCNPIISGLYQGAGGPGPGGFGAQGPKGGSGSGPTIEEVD
Chain of Induced myeloid leukemia cell differentiation protein Mcl-1 (Q07820 whole entry): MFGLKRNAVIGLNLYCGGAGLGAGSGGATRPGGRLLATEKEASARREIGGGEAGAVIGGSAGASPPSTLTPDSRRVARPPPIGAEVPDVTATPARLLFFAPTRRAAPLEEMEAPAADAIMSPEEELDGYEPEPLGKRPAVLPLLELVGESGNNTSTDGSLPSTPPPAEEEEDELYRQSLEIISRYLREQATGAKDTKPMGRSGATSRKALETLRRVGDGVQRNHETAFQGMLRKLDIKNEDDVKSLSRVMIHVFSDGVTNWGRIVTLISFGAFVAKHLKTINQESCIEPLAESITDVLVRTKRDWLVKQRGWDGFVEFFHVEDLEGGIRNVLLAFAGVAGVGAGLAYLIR

A word on the AC50: it is the midpoint of the concentration-response curve, whichever way the signal moves. As for `COc1ccc(S(=O)(=O)N(C)C[C@@H]2Oc3c(NC(=O)c4nc5ccccc5s4)cccc3C(=O)N([C@@H](C)CO)C[C@H]2C)cc1`, the half-maximal activity concentration (AC50) in experiment [1] was 38.6 µM (active); in the experiment on INS1 [2] it was 30.7 µM (active); in the experiment with INS1 [3] it was 32.7 µM (active); in experiment [4], 15 µM (active); in [5], 23.7 µM (active); in experiment [6], 9.82 µM (active). Besides, the AC50 in experiment [7] is 28.8 µM (active); in experiment [8], > 52 µM (inactive).

`Cc1ccc(Sc2c([N+](=O)[O-])c(=O)oc3ccccc23)cc1`: the concentration at half-maximal activity (AC50) in [9] is 37.1 µM (active).

As usually defined, the EC50 is the concentration needed to bring the measured effect to its halfway point. With `Cc1ccc2c(c1C)NC(C(=O)O)C1CC=CC21` (stereo unspecified), the IC50 is 5.43 µM (active) in [10]; 1.89 µM (active) at Bcl-2-like protein 10; 80.8 µM (active) in experiment [12]; 21.9 µM (active) in experiment [14]; 91.4 µM (active) on Large T antigen; 7.18 µM (active) in experiment [15]. In addition, the IC50 in experiment [16] is 6.2 µM (active); in [17] it was > 10 µM (not active); in [18], 3.17 µM (active); in experiment [19], 8.68 µM (active); in experiment [20], 5.96 µM (active); in experiment [21], 1.7 µM (active). The IC50 in experiment [22] was 0.858 µM (active); in experiment [23], 30.3 µM (inactive); in experiment [24] it was 6.55 µM (active). Moreover, the EC50 in experiment [11] was 37.4 µM (active); in [13], 21.7 µM (active).
